Measured values published in PubChem BioAssay AID248 (DTP/NCI, 2004).
Values joined by “and” are separate entries in the source; they are usually repeats but may differ in a detail not shown here. Equal values may be shown once. Toxic doses and inconclusive results are not listed. No stated cut-off is given here; in the data, active means T/C of 150% or more; inactive means T/C below 125%.

Test system: L1210 leukemia ip in BDF1 mice, survival T/C
Assay: NCI In Vivo Anticancer Drug Screen. Data for tumor model L1210 Leukemia (intraperitoneal) in B6D2F1 (BDF1) mice
Conditions: endpoint: mean survival time, higher = longer survival
Method in brief: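 Ratio derived from survival: compound-dosed mice over vehicle-dosed mice, all bearing a transplantable tumor.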

[1] = dose: 3.12 mg/kg/injection, schedule: Q01DX009 (ip), vehicle: Klucel (hydroxypropylcellulose) (HPC)
[2] = dose: 6.25 mg/kg/injection, schedule: Q01DX009 (ip), vehicle: Klucel (hydroxypropylcellulose) (HPC)
[3] = dose: 12.5 mg/kg/injection, schedule: Q01DX009 (ip), vehicle: Klucel (hydroxypropylcellulose) (HPC)
[4] = dose: 75.0 mg/kg/injection, schedule: Q01DX001 (ip), vehicle: carboxymethylcellulose (CMC)
[5] = dose: 150.0 mg/kg/injection, schedule: Q01DX001 (ip), vehicle: carboxymethylcellulose (CMC)
[6] = dose: 50.0 mg/kg/injection, schedule: Q01DX009 (ip), vehicle: saline
[7] = dose: 100.0 mg/kg/injection, schedule: Q01DX009 (ip), vehicle: saline
[8] = dose: 200.0 mg/kg/injection, schedule: Q01DX009 (ip), vehicle: saline
[9] = dose: 100.0 mg/kg/injection, schedule: Q04DX002 (ip), vehicle: saline with Tween-80
[10] = dose: 100.0 mg/kg/injection, schedule: Q04DX002 (ip), vehicle: Klucel (hydroxypropylcellulose) (HPC)
[11] = dose: 200.0 mg/kg/injection, schedule: Q04DX002 (ip), vehicle: Klucel (hydroxypropylcellulose) (HPC)

Measured: T/C

Cc1c2cnccc2c(C)c2c1c1ccccc1n2CC1CO1 (configuration not stated)
inactive: dose: 0.78 mg/kg/injection, schedule: Q01DX009 (ip), vehicle: Klucel (hydroxypropylcellulose) (HPC) 90 % of control | dose: 1.56 mg/kg/injection, schedule: Q01DX009 (ip), vehicle: Klucel (hydroxypropylcellulose) (HPC) 97 % of control | dose: 1.56 mg/kg/injection, schedule: Q01DX009 (ip), vehicle: saline with Tween-80 113 % of control | [1] 100 % of control | dose: 3.13 mg/kg/injection, schedule: Q01DX009 (ip), vehicle: saline with Tween-80 110 % of control | dose: 4.12 mg/kg/injection, schedule: Q01DX009 (ip), vehicle: Klucel (hydroxypropylcellulose) (HPC) 120 % of control | [2] 94 % of control and 122 % of control | dose: 6.25 mg/kg/injection, schedule: Q01DX009 (ip), vehicle: saline with Tween-80 113 % of control | dose: 6.25 mg/kg/injection, schedule: Q04DX003 (ip), vehicle: saline 110 % of control | [3] 113 % of control | dose: 12.5 mg/kg/injection, schedule: Q01DX009 (ip), vehicle: saline with Tween-80 120 % of control | dose: 25.0 mg/kg/injection, schedule: Q01DX009 (ip), vehicle: Klucel (hydroxypropylcellulose) (HPC) 119 % of control and 86 % of control | dose: 25.0 mg/kg/injection, schedule: Q04DX003 (ip), vehicle: saline 123 % of control | dose: 65.0 mg/kg/injection, schedule: Q04DX003 (ip), vehicle: saline 108 % of control and 117 % of control | dose: 100.0 mg/kg/injection, schedule: Q04DX003 (ip), vehicle: saline 104 % of control and 114 % of control | dose: 150.0 mg/kg/injection, schedule: Q04DX003 (ip), vehicle: saline 108 % of control

COc1cc(C=Nc2ccc(-c3csc(COc4ccccc4)n3)c(Cl)c2)ccc1N(CCCl)CCCl
inactive: dose: 5.0 mg/kg/injection, schedule: Q01DX015 (ip), vehicle: carboxymethylcellulose (CMC) 111 % of control | dose: 10.0 mg/kg/injection, schedule: Q01DX015 (ip), vehicle: carboxymethylcellulose (CMC) 113 % of control | dose: 20.0 mg/kg/injection, schedule: Q01DX015 (ip), vehicle: carboxymethylcellulose (CMC) 104 % of control | dose: 44.0 mg/kg/injection, schedule: Q01DX015 (ip), vehicle: carboxymethylcellulose (CMC) 97 % of control | dose: 200.0 mg/kg/injection, schedule: Q01DX001 (sc), vehicle: carboxymethylcellulose (CMC) 118 % of control

N=C(N)SC1c2ccccc2-c2ccc(Br)cc21 (configuration not stated)
inactive: [4] 104 % of control | [5] 91 % of control

COC1OC(CN(CCOS(C)(=O)=O)S(C)(=O)=O)C2OC(C)(C)OC12 (configuration not stated)
inactive: [6] 95 % of control | dose: 50.0 mg/kg/injection, schedule: Q04DX003 (ip), vehicle: Klucel (hydroxypropylcellulose) (HPC) 116 % of control | [7] 97 % of control | dose: 100.0 mg/kg/injection, schedule: Q04DX003 (ip), vehicle: Klucel (hydroxypropylcellulose) (HPC) 102 % of control | [8] 95 % of control | dose: 200.0 mg/kg/injection, schedule: Q04DX003 (ip), vehicle: Klucel (hydroxypropylcellulose) (HPC) 121 % of control | dose: 400.0 mg/kg/injection, schedule: Q01DX009 (ip), vehicle: saline 95 % of control | dose: 400.0 mg/kg/injection, schedule: Q04DX003 (ip), vehicle: Klucel (hydroxypropylcellulose) (HPC) 104 % of control

CCCCCCCCN(C=O)CCCCCCCC
inactive: [9] 98 % of control

CN(C)Cc1cc(C(F)(F)F)ccc1C(O)(c1ccccc1)c1ccccc1
inactive: dose: 50.0 mg/kg/injection, schedule: Q01DX001 (ip), vehicle: carboxymethylcellulose (CMC) 110 % of control | dose: 100.0 mg/kg/injection, schedule: Q01DX001 (ip), vehicle: carboxymethylcellulose (CMC) 101 % of control | dose: 200.0 mg/kg/injection, schedule: Q01DX001 (ip), vehicle: carboxymethylcellulose (CMC) 101 % of control | dose: 400.0 mg/kg/injection, schedule: Q01DX001 (ip), vehicle: carboxymethylcellulose (CMC) 98 % of control

COCC1OC(OC2OCC3OC4(OCC(O)(C(C)OC)C5OCOC54)OC3C2OC)C(OC)C(O)C1OC1OC(C)C(OC)C(OC2OC(C)C3OC4(CC(O)C(OC5CC(OC6CC(C)([N+](=O)[O-])C(OC)C(C)O6)C(OC(=O)c6c(C)c(Cl)c(O)c(Cl)c6OC)C(C)O5)C(C)O4)OC3(C)C2O)C1O (configuration not stated)
inactive: [6] 106 % of control | [7] 106 % of control | [8] 96 % of control

CN1CCCCC1C[CH2][Sn]([c]1ccccc1)([c]1ccccc1)[c]1ccccc1 (configuration not stated)
inactive: [1] 90 % of control | [2] 90 % of control | [3] 92 % of control | dose: 12.5 mg/kg/injection, schedule: Q04DX002 (ip), vehicle: Klucel (hydroxypropylcellulose) (HPC) 93 % of control | dose: 25.0 mg/kg/injection, schedule: Q04DX002 (ip), vehicle: Klucel (hydroxypropylcellulose) (HPC) 96 % of control

C1=C2NNC(c3ccccc3)=C(c3ccccc3)C2=CCC1 (tested in a mixture with another compound)
inactive: dose: 50.0 mg/kg/injection, schedule: Q01DX009 (ip), vehicle: Klucel (hydroxypropylcellulose) (HPC) 94 % of control | dose: 100.0 mg/kg/injection, schedule: Q01DX009 (ip), vehicle: Klucel (hydroxypropylcellulose) (HPC) 90 % of control | dose: 200.0 mg/kg/injection, schedule: Q01DX009 (ip), vehicle: Klucel (hydroxypropylcellulose) (HPC) 90 % of control

CC(C(=O)Nc1ccc(Cl)c(Cl)c1)C(=O)Nc1ccc(Cl)c(Cl)c1
inactive: dose: 100.0 mg/kg/injection, schedule: Q04DX002 (ip), vehicle: gum acacia 92 % of control | dose: 200.0 mg/kg/injection, schedule: Q04DX002 (ip), vehicle: gum acacia 103 % of control | dose: 400.0 mg/kg/injection, schedule: Q04DX002 (ip), vehicle: gum acacia 99 % of control

OC(c1ccccc1)(c1ccccc1)C(F)(F)C(F)(F)C(F)(F)F
inactive: dose: 222.0 mg/kg/injection, schedule: Q01DX Z (ip), vehicle: methylcellulose (MC) 89 % of control | dose: 333.0 mg/kg/injection, schedule: Q01DX Z (ip), vehicle: methylcellulose (MC) 96 % of control

Nc1cccc(CCCCc2ccc(Cl)cc2Cl)c1
inactive: dose: 100.0 mg/kg/injection, schedule: Q01DX001 (ip), vehicle: Klucel (hydroxypropylcellulose) (HPC) 97 % of control | dose: 200.0 mg/kg/injection, schedule: Q01DX001 (ip), vehicle: Klucel (hydroxypropylcellulose) (HPC) 96 % of control | dose: 400.0 mg/kg/injection, schedule: Q01DX001 (ip), vehicle: Klucel (hydroxypropylcellulose) (HPC) 102 % of control

Clc1ccccc1C=NCC1CCC(CN=Cc2ccccc2Cl)CC1 (configuration not stated)
inactive: dose: 50.0 mg/kg/injection, schedule: Q01DX009 (ip), vehicle: saline with Tween-80 92 % of control and 100 % of control | dose: 100.0 mg/kg/injection, schedule: Q01DX001 (ip), vehicle: saline with Tween-80 106 % of control | dose: 100.0 mg/kg/injection, schedule: Q01DX009 (ip), vehicle: saline with Tween-80 92 % of control | [9] 104 % of control and 88 % of control | dose: 200.0 mg/kg/injection, schedule: Q01DX001 (ip), vehicle: saline with Tween-80 93 % of control | dose: 200.0 mg/kg/injection, schedule: Q01DX009 (ip), vehicle: saline with Tween-80 90 % of control | dose: 200.0 mg/kg/injection, schedule: Q04DX002 (ip), vehicle: saline with Tween-80 100 % of control | dose: 400.0 mg/kg/injection, schedule: Q01DX001 (ip), vehicle: saline with Tween-80 98 % of control | dose: 400.0 mg/kg/injection, schedule: Q04DX002 (ip), vehicle: saline with Tween-80 89 % of control

[Cl][Pd][Cl].[NH-]C1CCCC1.[NH-]C1CCCC1
inactive: dose: 6.25 mg/kg/injection, schedule: Q04DX002 (ip), vehicle: saline 102 % of control | dose: 12.5 mg/kg/injection, schedule: Q04DX002 (ip), vehicle: saline 105 % of control | dose: 25.0 mg/kg/injection, schedule: Q04DX002 (ip), vehicle: saline 97 % of control

NCCCC(=O)NCCCCCCCCCCNC(=O)CCCN
inactive: dose: 3.0 mg/kg/injection, schedule: Q01DX012 (ip), vehicle: saline 105 % of control | dose: 10.0 mg/kg/injection, schedule: Q01DX012 (ip), vehicle: saline 108 % of control | dose: 30.0 mg/kg/injection, schedule: Q01DX012 (ip), vehicle: saline 103 % of control

Cc1cccc(NC(=O)N(C)N)c1
inactive: [4] 96 % of control | [5] 104 % of control

CN(Cc1ccccc1)C(=O)C(Cl)Cl
inactive: [10] 103 % of control | [11] 117 % of control | dose: 400.0 mg/kg/injection, schedule: Q04DX002 (ip), vehicle: Klucel (hydroxypropylcellulose) (HPC) 109 % of control

CCOC(=O)c1c(-c2ccc([N+](=O)[O-])cc2)c(/C=N\O)n(-c2ccccc2)c1C
inactive: [10] 87 % of control | [11] 94 % of control
